Drawing on PubChem BioAssay (NCI), this text covers TGI and GI50 for 17 compounds.

Test systems include NCI-H226 lung; UACC-257 melanoma; OVCAR-8 ovarian; NCI-H522 lung; MCF7 breast; UACC-62 melanoma; BT-549 breast.
Common to all, as to test: NCI tumour cell line growth inhibition, 48 h

Where “and” joins values, the source holds several entries; their conditions need not be identical. Equal values may be shown once.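 In this assay, cells in 96-well plates receive the compound at five concentrations for 48 hours. Endpoints are linearly interpolated between the surrounding concentrations. GI50 is the concentration that inhibits growth by half. The concentration for full growth arrest is given as TGI.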

`CCCCCCCCCCCCCCCCOC[C@@H](COC(c1ccccc1)(c1ccccc1)c1ccccc1)O[P+](=S)OC` (stereo partly drawn): the TGI with NCI-H226 lung turned out to be 42.5 µM; in the test on UACC-257 melanoma it was 26.5 µM; in the test with OVCAR-8 ovarian, 48.9 µM; in the test on NCI-H522 lung, 27.5 µM; with MCF7 breast, 31 µM; in the test on UACC-62 melanoma it was 14.5 µM. The TGI in the test with BT-549 breast is 16.7 µM.

For `COc1ccc(N2C(=O)C3c4[nH]c5ccc(F)cc5c4C4CCC(c5ccccc5)CC4C3C2=O)cc1` (stereo not drawn), the TGI is above 100 µM with NCI-H226 lung; 97 µM with UACC-257 melanoma; 50.6 µM in the test on OVCAR-8 ovarian; 39.1 µM in the test with NCI-H522 lung; above 100 µM in the test on MCF7 breast; 27.6 µM in the test with UACC-62 melanoma. In the test on BT-549 breast, the TGI amounted to 40.7 µM.

As to `C=C1C(=O)O[C@@H]2C=C(C)C3=CC(=O)[C@](C)(C[C@H](OC(=O)/C(C)=C\C)[C@@H]12)O3`, the TGI in the test with NCI-H226 lung came out at 4.99 µM; with UACC-257 melanoma it was 8.62 µM; with OVCAR-8 ovarian, 2.18 µM; in the test with NCI-H522 lung, 0.394 µM; with MCF7 breast, 1.63 µM; in the test with UACC-62 melanoma it was 2.06 µM. In the test with BT-549 breast, the TGI is 1.98 µM.

Regarding `COc1cc2c(=O)cnoc2cc1O`, the TGI in the test with NCI-H226 lung, with UACC-257 melanoma, in the test on OVCAR-8 ovarian, in the test with NCI-H522 lung, with MCF7 breast and in the test with UACC-62 melanoma was above 100 µM each time. In addition, the TGI in the test with BT-549 breast was above 100 µM.

As for `COc1ccc2cc(CN3CCC(C4CCNCC4)CC3)ccc2c1`, the TGI in the test with NCI-H226 lung worked out at 29.2 µM; in the test with UACC-257 melanoma, 3.47 µM; in the test on OVCAR-8 ovarian, 22.1 µM; in the test with NCI-H522 lung, 4.54 µM; in the test with MCF7 breast, 6.32 µM; with UACC-62 melanoma it was 3.87 µM. In the test with BT-549 breast, this compound yielded a TGI of 24.3 µM.

`CC(C)=CCC/C(C)=C/CC/C(C)=C/CC/C(=C/CC/C(C)=C\CC/C(C)=C/CC/C(C)=C/CC/C(C)=C/Cc1cc(O)ccc1O)CO`: the TGI is 6.54 µM with NCI-H226 lung; 11.8 µM in the test with UACC-257 melanoma; 13.5 µM in the test with OVCAR-8 ovarian; 6.26 µM in the test with NCI-H522 lung; 15.2 µM with MCF7 breast; 5.17 µM in the test with UACC-62 melanoma. Further, the TGI in the test on BT-549 breast came to 12.5 µM.

In the case of `c1c[nH]c(C23C4C5C6C4C2C6C53)n1` (stereo not drawn), the TGI in the test on NCI-H226 lung, in the test with UACC-257 melanoma, with OVCAR-8 ovarian, with NCI-H522 lung, in the test with MCF7 breast and in the test with UACC-62 melanoma was above 100 µM each time. The compound also showed a TGI in the test with BT-549 breast above 100 µM.

Consider `O=CC12C3CCC1C2C(=O)C3` (stereo not drawn), for which the TGI with NCI-H226 lung, in the test with UACC-257 melanoma, in the test on OVCAR-8 ovarian, in the test with NCI-H522 lung, with MCF7 breast and in the test with UACC-62 melanoma was above 100 µM in each case. Also, the TGI in the test with BT-549 breast was above 100 µM.

For the compound `CCCCCCCCCCC1OC([C@@H](O)CC[C@H](O)C2CC[C@@H](CCCCCCCC(O)CC3=CC(C)OC3=O)O2)CCC1O` (stereo partly drawn), the TGI in the test with NCI-H226 lung is above 25 µM; in the test with UACC-257 melanoma, above 18.4 µM; in the test with OVCAR-8 ovarian, above 25 µM; in the test on NCI-H522 lung it was above 25 µM; with MCF7 breast it was above 25 µM; in the test with UACC-62 melanoma, above 25 µM. The TGI in the test on BT-549 breast is 7.53 µM and > 25 µM. Further, the GI50 was 2.51 µM with UACC-257 melanoma, 9.96 µM in the test with OVCAR-8 ovarian, 1.34 µM with MCF7 breast and 2.34 µM in the test with BT-549 breast.

As for `CN(C)CCCn1nc(N)c2nc3cc(Cl)ccc3nc21`, the TGI in the test on NCI-H226 lung was above 100 µM; in the test on UACC-257 melanoma, 59.3 µM; in the test on OVCAR-8 ovarian, above 100 µM; in the test with NCI-H522 lung, above 100 µM; with MCF7 breast, above 100 µM; with UACC-62 melanoma, 45 µM. For the same compound, the TGI in the test on BT-549 breast was above 100 µM.

For the compound `FC1C2=C(SC1(F)F)C1CCC2C1` (stereo not drawn), the TGI in the test with NCI-H226 lung, with UACC-257 melanoma, in the test with OVCAR-8 ovarian, in the test on NCI-H522 lung, in the test on MCF7 breast and in the test on UACC-62 melanoma was above 100 µM throughout. This compound also showed a TGI in the test on BT-549 breast above 100 µM.

As for `CCCCCCCCCCCCCCCC(=O)N(CCCCCCCCCCC(=O)O)CC(O)C(O)C(OC1OC(CO)C(O)C(O)C1O)C(O)CO` (stereo not drawn), the TGI in the test with NCI-H226 lung was above 100 µM; in the test on UACC-257 melanoma, 55.7 µM; in the test on OVCAR-8 ovarian, 66 µM; in the test with NCI-H522 lung it was above 100 µM; in the test with MCF7 breast it was above 100 µM; in the test on UACC-62 melanoma, 34.7 µM. Besides, the TGI in the test on BT-549 breast was determined as 68 µM.

On to `CCN(CC)CCNC(=O)c1cn2c(ccc3sc4ccccc4c(=O)c32)n1`, for which the TGI in the test on NCI-H226 lung is 40.6 µM; in the test on UACC-257 melanoma, 30.1 µM; in the test with OVCAR-8 ovarian, 31.8 µM; in the test with NCI-H522 lung it was 25.6 µM; in the test with MCF7 breast, 38.2 µM; in the test on UACC-62 melanoma, 29.1 µM. For the same compound, the TGI in the test on BT-549 breast was 28.5 µM.

On to `O=c1c(=O)c2c(Br)sc(Br)c2c1=O`, for which the TGI is above 100 µM in the test on NCI-H226 lung; 36.5 µM with UACC-257 melanoma; 37.4 µM in the test on OVCAR-8 ovarian; 32 µM in the test with NCI-H522 lung; 42.3 µM with MCF7 breast; 39.3 µM in the test with UACC-62 melanoma. Moreover, the TGI in the test with BT-549 breast was determined as 36.6 µM.

Consider `Cc1noc(NC2=CC(=O)C(=O)c3ccccc32)c1C`, for which the TGI was above 100 µM in the test on NCI-H226 lung; 64 µM in the test on UACC-257 melanoma; above 100 µM in the test with OVCAR-8 ovarian; 79.2 µM with NCI-H522 lung; 17.9 µM with MCF7 breast; 22.9 µM in the test on UACC-62 melanoma. In addition, in the test with BT-549 breast, the TGI amounted to 50.2 µM.

`CN(c1ccccc1Cl)S(=O)(=O)c1ccc([N+](=O)[O-])cc1`: the TGI with NCI-H226 lung, with UACC-257 melanoma, in the test on OVCAR-8 ovarian, in the test with NCI-H522 lung, in the test on MCF7 breast and in the test with UACC-62 melanoma was above 100 µM in each case. The compound further yielded a TGI with BT-549 breast above 100 µM.

Regarding `CC(=O)N=C1N(/C=C2\C(=O)Oc3ccccc3C2=O)C(=O)/C(=C/c2ccc(Cl)cc2Cl)N1C`, the TGI with NCI-H226 lung, in the test with UACC-257 melanoma, in the test on OVCAR-8 ovarian, in the test with NCI-H522 lung, with MCF7 breast and with UACC-62 melanoma was above 100 µM throughout. The TGI in the test on BT-549 breast came out at 62 µM.
